Reference: the NIST ThermoML archive (doi:10.1021/acs.jced.8b00110)

Assay: xn = mol fraction of the nth substance listed
Settings: Liquid, phase equilibration, x1 = 0.05

| Structure (SMILES) | binary diffusion coefficient (303.2 K) [m2/s] | binary diffusion coefficient (313.1 K) [m2/s] | binary diffusion coefficient (323.2 K) [m2/s] | binary diffusion coefficient (333.2 K) [m2/s] | binary diffusion coefficient (343.2 K) [m2/s] |
| --- | --- | --- | --- | --- | --- |
| FC(F)(F)/C=C/Cl [(E)-1-chloro-3,3,3-trifluoroprop-1-ene] + CCCCCC[n+]1ccn(C)c1.O=S(=O)([N-]S(=O)(=O)C(F)(F)F)C(F)(F)F | 2.9e-10 | 3.8e-10 | 4.1e-10 | 5.7e-10 | 8.3e-10 |
| FC(F)(F)/C=C/Cl [(E)-1-chloro-3,3,3-trifluoroprop-1-ene] + CCCCCCn1cc[n+](C)c1.F[B-](F)(F)F | 3.3e-10 | 4.6e-10 | 6.1e-10 | 9.6e-10 | 1.68e-09 |
| FC(F)(F)/C=C/Cl [(E)-1-chloro-3,3,3-trifluoroprop-1-ene] + CCCCCCn1cc[n+](C)c1.O=S(=O)([O-])C(F)(F)F | 5.2e-10 | 7.8e-10 | 1.04e-09 | 1.69e-09 | 2.62e-09 |
